Data taken from ChEMBL document CHEMBL4433256, “Homoharringtonine stabilizes secondary structure of guanine-rich sequence existing in the 5'-untranslated region of Nrf2” (Bioorg Med Chem Lett, 2019).
pKd: −log10 of the molar value. The source made the active and inactive calls. No cut-off for these calls is given here.

How the values were obtained:
[1] = system: A549; test: Inhibition of Nrf2 5'-untranslated region guanine-rich DNA sequence in human A549 cells assessed as potentiation of etoposide-induced cytotoxicity by measuring increase in ROS production at 10 nM after 24 hrs by DCFH-DA based assay; format: cell-based
[2] = system: A549; test: Inhibition of Nrf2 5'-untranslated region guanine-rich DNA sequence in human A549 cells assessed as potentiation of etoposide-induced cytotoxicity by measuring decrease in cell viability at 10 nM after 24 hrs by MTT assay; format: cell-based
[3] = Stabilization of ssGQPLEX-G/T-1,2,3,4 DNA by circular dichroism method
[4] = Stabilization of ssGQPLEX-G/T-2,4 DNA (unknown origin) by circular dichroism method
[5] = Stabilization of ssGQPLEX-G/T-1,3 DNA (unknown origin) by circular dichroism method
[6] = Stabilization of ssGQPLEX-delta3,4 DNA lacking third and fourth G blocks (unknown origin) by circular dichroism method
[7] = Stabilization of ssGQPLEX-delta1,2 DNA lacking first and second G blocks (unknown origin) by circular dichroism method
[8] = Binding affinity to ssGQPLEX DNA (unknown origin) assessed as dissociation constant by isothermal titration calorimetric method
[9] = Stabilization of dsGQPLEX DNA (unknown origin) by circular dichroism method
[10] = Stabilization of ssGQPLEX DNA (unknown origin) assessed as increase in the peak of 264 nm wavelength by circular dichroism method
[11] = system: A549; test: Inhibition of Nuclear factor erythroid 2-related factor 2 5'-untranslated region guanine-rich DNA sequence in human A549 cells assessed as reduction in NRF2 mRNA levels at 10 nM after 12 to 36 hrs by RT-PCR analysis; format: cell-based
[12] = system: A549; test: Inhibition of Nuclear factor erythroid 2-related factor 2 5'-untranslated region guanine-rich DNA sequence in human A549 cells assessed as suppression of AKR1B10 gene expression at 10 nM measured up to 48 hrs by RT-PCR analysis; format: cell-based
[13] = system: A549; test: Inhibition of Nuclear factor erythroid 2-related factor 2 5'-untranslated region guanine-rich DNA sequence in human A549 cells assessed as suppression of AKR1C3 gene expression at 10 nM measured up to 48 hrs by RT-PCR analysis; format: cell-based
[14] = system: A549; test: Inhibition of Nuclear factor erythroid 2-related factor 2 5'-untranslated region guanine-rich DNA sequence in human A549 cells assessed as suppression of GCLC gene expression at 10 nM measured up to 48 hrs by RT-PCR analysis; format: cell-based
[15] = system: A549; test: Cytotoxicity against human A549 cells at 1 nM to 10 uM after 24 hrs by MTT assay; format: cell-based; conditions: a549, 24 h, 0.001 µM
[16] = system: A549; test: Inhibition of Nuclear factor erythroid 2-related factor 2 5'-untranslated region guanine-rich DNA sequence in human A549 cells assessed as reduction in Nrf2 protein level at 10 nM incubated for 12 to […] hrs by Western blot analysis; format: cell-based
[17] = system: A549; test: Inhibition of Nrf2 5'-untranslated region guanine-rich DNA sequence in human A549 cells assessed as potentiation of etoposide-induced cytotoxicity by measuring increase in apoptosis at 10 nM after 24 hrs by TUNEL assay; format: cell-based
[18] = system: A549; test: Inhibition of Nrf2 5'-untranslated region guanine-rich DNA sequence in human A549 cells assessed as potentiation of etoposide-induced apoptosis by measuring increase cleaved caspase-3 protein level in at 10 nM after 24 hrs by Western blot analysis; format: cell-based
[19] = system: A549; test: Inhibition of Nrf2 5'-untranslated region guanine-rich DNA sequence in human A549 cells assessed as potentiation of etoposide-induced apoptosis by measuring increase cleaved PARP protein level in at 10 nM after 24 hrs by Western blot analysis; format: cell-based

In the case of `COC(=O)C[C@](O)(CCCC(C)(C)O)C(=O)O[C@@H]1C(OC)=C[C@]23CCCN2CCc2cc4c(cc2[C@H]13)OCO4` [OMACETAXINE MEPESUCCINATE], the inhibition [1] was “Active”, the inhibition [2] was “Active” and the Activity [3] was “inactive”. The Activity [4] was “inactive”, the Activity [5] was “inactive” and the Activity [6] was “inactive”. For the same molecule, the Activity [7] was “inactive”, the pKd [8] was 4.77 and the Activity [9] was “inactive”. For the same molecule, the Activity [10] was “Active”, the inhibition [11] was “Active” and the inhibition [12] was “Active”. For the same molecule, the inhibition [13] was “Active”, the inhibition [14] was “Active” and the Activity [15] was “Non-Toxic”. For the same molecule, the inhibition [16] was “Active”, the inhibition [17] was “Active” and the inhibition [18] was “Active”. For the same molecule, the inhibition [19] was “Active”.
